This is an account of results in US20260232815A1, “COPOLYMER-DRUG CONJUGATE FOR TREATMENT OF TUMOURS” (Danmarks Tekniske Universitet, priority 2023, published 2026).

This test deals with Murine colon carcinoma CT26. Briefly: Antitumour efficacy after intratumoral treatment of CT26 tumours. Format: in vivo, Balb/cJRj mice.

Procedure: Healthy Balb/cJRj mice were injected with 100 μL of Murine colon carcinoma CT26 cancer cells (3×105) in RPMI media subcutaneously on the right flank. Mice bearing tumors with volumes between 50 and 200 mm^3 were randomized and rearranged into new cages by blocking for initial tumor volume, and each cage received one of the four treatments described in Table 2 administered intratumorally (50 μL). A total of 3 injections, separated by 7 days each, were made for each treatment.
83 days after the first tumor inoculation, the surviving mice were re-challenged by a second inoculation of CT26 cancers cells (same dose) on the left flank of the mice along with a control group getting their first inoculation. The mice were monitored for weight and their tumors were measured using an electronic caliper twice a week, and fluorescence imaging was performed at regular intervals for all formulations containing Cy7 moieties. […] Humane endpoints included general signs of misthriving mice, significant weight loss (15% of initial weight or 10% overnight weight loss), or presence of tumor wounds larger than 8 mm.

As to `CCOCc1nc2c(N)nc3ccccc3c2n1CCCN` [TLR7/8a, 4-Amino-2-(ethoxymethyl)-1H-imidazo[4,5-c]quinoline-1-propanamine], under “intratumoral treatment”, the “antitumour activity / improvement versus control” value is reported as “potential minor improvement in tumour treatment compared to the control”. In addition, under “mouse, in vivo”, the “averaged slope coefficient for the tumour growth plots (tumour growth rate)” value is reported as “positive”. Besides, the “mice recovered from the tumour” value (six mice per group, 3 intratumoral injections 7 days apart) was “two out of six mice recovered”.
